Laboratory results published in ChEMBL document CHEMBL3885861, “Open TG-GATES”.

Organism: Rattus norvegicus
Assay: Open TG-GATES - Regimen: Daily Repeat
Assay type: toxicity, organism-based, Sprague-Dawley
Design: regimen Daily Repeat, gender Male, age 6 weeks
Conditions: in vivo, po, 0 mg/kg, route gavage, dose level Control; for APTT / Bas / Eos / Fbg / Hb / Ht / Lym / MCH / MCHC / MCV / Mono / Neu / PT / Plat / RBC / Ret / WBC: tissue Blood; for KIDNEY_L / KIDNEY_R / KIDNEY_TOTAL: tissue Kidney; for LIVER: tissue Liver; for ALP / ALT / AST / BUN / CRE / DBIL / GLC / IP / K / LDH / Na / PL / RALB / TBIL / TC / TG / TP / gamma-GTP: tissue Plasma

SMILES: CC(CCc1ccccc1)NCC(O)c1ccc(O)c(C(N)=O)c1 (stereo not drawn) [LABETALOL]
- TERMINAL_BW (72 h, time 3 day): 252.2 g
- APTT (72 h, time 3 day): 16.5 s
- Bas (72 h, time 3 day): 0%
- Eos (72 h, time 3 day): 1%
- Fbg (72 h, time 3 day): 295.4 mg/dL
- Hb (72 h, time 3 day): 13.4 g/dL
- Ht (72 h, time 3 day): 38.9%
- Lym (72 h, time 3 day): 75.4%
- MCH (72 h, time 3 day): 21.3 pg
- MCHC (72 h, time 3 day): 34.3%
- MCV (72 h, time 3 day): 62.2 fL
- Mono (72 h, time 3 day): 3.6%
- Neu (72 h, time 3 day): 19.6%
- PT (72 h, time 3 day): 12.8 s
- Plat (72 h, time 3 day): 116.3 x10_4/uL
- RBC (72 h, time 3 day): 627 x10_4/ul
- Ret (72 h, time 3 day): 6.4%
- WBC (72 h, time 3 day): 105.6 x10_2/uL
- KIDNEY_L (72 h, time 3 day): 1.1 g
- KIDNEY_R (72 h, time 3 day): 1.1 g
- KIDNEY_TOTAL (72 h, time 3 day): 2.2 g
- LIVER (72 h, time 3 day): 12.1 g
- ALP (72 h, time 3 day): 1730.4 IU/L
- ALT (72 h, time 3 day): 44.2 IU/L
- AST (72 h, time 3 day): 70 IU/L
- BUN (72 h, time 3 day): 15.4 mg/dL
- CRE (72 h, time 3 day): 0.2 mg/dL
- DBIL (72 h, time 3 day): 0.014 mg/dL
- GLC (72 h, time 3 day): 190.6 mg/dL
- IP (72 h, time 3 day): 7.8 mg/dL
- K (72 h, time 3 day): 4 meq/L
- LDH (72 h, time 3 day): 60.6 IU/L
- Na (72 h, time 3 day): 143.4 meq/L
- PL (72 h, time 3 day): 158 mg/dL
- RALB (72 h, time 3 day): 2.7 g/dL
- TBIL (72 h, time 3 day): 0.032 mg/dL
- TC (72 h, time 3 day): 85.6 mg/dL
- TG (72 h, time 3 day): 111.4 mg/dL
- TP (72 h, time 3 day): 5.8 g/dL
- gamma-GTP (72 h, time 3 day): 1 IU/L
- TERMINAL_BW ([…], time 7 day): 289.5 g
- TERMINAL_BW ([…], time 14 day): 341.4 g
- TERMINAL_BW ([…], time 28 day): 418.9 g
- APTT ([…], time 7 day): 17.2 s
- Bas ([…], time 7 day): 0%
- Eos ([…], time 7 day): 0.8%
- Fbg ([…], time 7 day): 319.2 mg/dL
- Hb ([…], time 7 day): 13.6 g/dL
- Ht ([…], time 7 day): 38.7%
- Lym ([…], time 7 day): 78.2%
- MCH ([…], time 7 day): 21.4 pg
- MCHC ([…], time 7 day): 35.1%
- MCV ([…], time 7 day): 61 fL
- Mono ([…], time 7 day): 3%
- Neu ([…], time 7 day): 16.8%
- PT ([…], time 7 day): 12.5 s
- Plat ([…], time 7 day): 117.8 x10_4/uL
- RBC ([…], time 7 day): 635.2 x10_4/ul
- Ret ([…], time 7 day): 6%
- WBC ([…], time 7 day): 108.5 x10_2/uL
- APTT ([…], time 14 day): 17.8 s
- Bas ([…], time 14 day): 0.2%
- Eos ([…], time 14 day): 1%
- Fbg ([…], time 14 day): 271.4 mg/dL
- Hb ([…], time 14 day): 14.6 g/dL
- Ht ([…], time 14 day): 42.4%
- Lym ([…], time 14 day): 71.8%
- MCH ([…], time 14 day): 21.1 pg
- MCHC ([…], time 14 day): 34.4%
- MCV ([…], time 14 day): 61.5 fL
- Mono ([…], time 14 day): 2.8%
- Neu ([…], time 14 day): 23.8%
- PT ([…], time 14 day): 12.8 s
- Plat ([…], time 14 day): 104.1 x10_4/uL
- RBC ([…], time 14 day): 689 x10_4/ul
- Ret ([…], time 14 day): 4.5%
- WBC ([…], time 14 day): 82.7 x10_2/uL
- APTT ([…], time 28 day): 18.5 s
- Bas ([…], time 28 day): 0.6%
- Eos ([…], time 28 day): 1.2%
- Fbg ([…], time 28 day): 289 mg/dL
- Hb ([…], time 28 day): 15.1 g/dL
- Ht ([…], time 28 day): 43.5%
- Lym ([…], time 28 day): 76.2%
- MCH ([…], time 28 day): 20.2 pg
- MCHC ([…], time 28 day): 34.8%
- MCV ([…], time 28 day): 58.3 fL
- Mono ([…], time 28 day): 3.2%
- Neu ([…], time 28 day): 18.4%
- PT ([…], time 28 day): 12.9 s
- Plat ([…], time 28 day): 98.3 x10_4/uL
- RBC ([…], time 28 day): 748.2 x10_4/ul
- Ret ([…], time 28 day): 2.5%
- WBC ([…], time 28 day): 98.7 x10_2/uL
- KIDNEY_L ([…], time 7 day): 1.2 g
- KIDNEY_R ([…], time 7 day): 1.2 g
- KIDNEY_TOTAL ([…], time 7 day): 2.5 g
- KIDNEY_L ([…], time 14 day): 1.3 g
- KIDNEY_R ([…], time 14 day): 1.2 g
- KIDNEY_TOTAL ([…], time 14 day): 2.4 g
- KIDNEY_L ([…], time 28 day): 1.4 g
- KIDNEY_R ([…], time 28 day): 1.4 g
- KIDNEY_TOTAL ([…], time 28 day): 2.9 g
- LIVER ([…], time 7 day): 13.1 g
- LIVER ([…], time 14 day): 13.9 g
- LIVER ([…], time 28 day): 16.1 g
- ALP ([…], time 7 day): 1548.4 IU/L
- ALT ([…], time 7 day): 43.4 IU/L
- AST ([…], time 7 day): 69.8 IU/L
- BUN ([…], time 7 day): 14.2 mg/dL
- CRE ([…], time 7 day): 0.2 mg/dL
- DBIL ([…], time 7 day): 0.012 mg/dL
- GLC ([…], time 7 day): 188.4 mg/dL
- IP ([…], time 7 day): 7.8 mg/dL
- K ([…], time 7 day): 3.8 meq/L
- LDH ([…], time 7 day): 64.6 IU/L
- Na ([…], time 7 day): 143.2 meq/L
- PL ([…], time 7 day): 149.2 mg/dL
- RALB ([…], time 7 day): 2.7 g/dL
- TBIL ([…], time 7 day): 0.034 mg/dL
- TC ([…], time 7 day): 85.4 mg/dL
- TG ([…], time 7 day): 86.8 mg/dL
- TP ([…], time 7 day): 5.8 g/dL
- gamma-GTP ([…], time 7 day): 1 IU/L
- ALP ([…], time 14 day): 1377.6 IU/L
- ALT ([…], time 14 day): 45.8 IU/L
- AST ([…], time 14 day): 72.4 IU/L
- BUN ([…], time 14 day): 15.2 mg/dL
- CRE ([…], time 14 day): 0.2 mg/dL
- DBIL ([…], time 14 day): 0.014 mg/dL
- GLC ([…], time 14 day): 197 mg/dL
- IP ([…], time 14 day): 6.9 mg/dL
- K ([…], time 14 day): 3.7 meq/L
- LDH ([…], time 14 day): 79.4 IU/L
- Na ([…], time 14 day): 144.6 meq/L
- PL ([…], time 14 day): 146.8 mg/dL
- RALB ([…], time 14 day): 2.8 g/dL
- TBIL ([…], time 14 day): 0.024 mg/dL
- TC ([…], time 14 day): 74 mg/dL
- TG ([…], time 14 day): 120.8 mg/dL
- TP ([…], time 14 day): 6.2 g/dL
- gamma-GTP ([…], time 14 day): 1 IU/L
- ALP ([…], time 28 day): 1192 IU/L
- ALT ([…], time 28 day): 43.2 IU/L
- AST ([…], time 28 day): 67 IU/L
- BUN ([…], time 28 day): 17 mg/dL
- CRE ([…], time 28 day): 0.2 mg/dL
- DBIL ([…], time 28 day): 0.022 mg/dL
- GLC ([…], time 28 day): 199 mg/dL
- IP ([…], time 28 day): 6.5 mg/dL
- K ([…], time 28 day): 3.6 meq/L
- LDH ([…], time 28 day): 63.8 IU/L
- Na ([…], time 28 day): 142.4 meq/L
- PL ([…], time 28 day): 151.2 mg/dL
- RALB ([…], time 28 day): 2.8 g/dL
- TBIL ([…], time 28 day): 0.036 mg/dL
- TC ([…], time 28 day): 77.6 mg/dL
- TG ([…], time 28 day): 143.2 mg/dL
